This note sets out measurements from article doi:10.1101/2021.10.07.463234v2 (biorxiv, 2021).

The %inhibition is the drop in the measured response relative to a control, in per cent. A low value points to little suppression. Broadly, the inhibition is the change of the read-out against control, counted positive when it falls.

Structures can show the parent of a compound that is named as a salt.

The first assay has as its target SARS-CoV-2 Mac1 (Severe acute respiratory syndrome coronavirus 2, UniProt P0DTD1). Put plainly: biochemical. The note with it: 100 µM; inhibitor.
Regarding `COc1cc(O)c(C(=O)Nc2nc(C(=O)NCCN(C(C)C)C(C)C)cs2)cc1OC` [Acotiamide hydrochloride], the “%inhibition” value is given as 0%.
Turning to `COc1cc(O)c(C(=O)Nc2nc(C(=O)NCCN(C(C)C)C(C)C)cs2)cc1OC` [Acotiamide], the “%inhibition” value is 14.33%.
On to `CN(C)C/C=C/C(=O)Nc1cc2c(Nc3ccc(F)c(Cl)c3)ncnc2cc1O[C@H]1CCOC1` [Afatinib (BIBW2992) Dimaleate], for which the “%inhibition” value came out at 21%.
For the compound `CN(C)C/C=C/C(=O)Nc1cc2c(Nc3ccc(F)c(Cl)c3)ncnc2cc1O[C@H]1CCOC1` [Afatinib (BIBW2992)], the “%inhibition” value turned out to be 0.3349%.
Turning to `Nc1c(Br)cc(Br)cc1CN[C@H]1CC[C@H](O)CC1` [Ambroxol HCl], the “%inhibition” value was found to be 9.799%.
On the same count and under the same terms, then `Nc1c(Br)cc(Br)cc1CN[C@H]1CC[C@H](O)CC1` [Ambroxol], with 0%.
Consider `N=C(N)NC(=O)c1nc(Cl)c(N)nc1N` [Amiloride HCl dihydrate], for which the “%inhibition” value was found to be 4.635%.
Still for that read-out and setting: next, `N=C(N)NC(=O)c1nc(Cl)c(N)nc1N` [Amiloride HCl]: 0%; `CCOC(=O)C1=C(COCCN)NC(C)=C(C(=O)OC)C1c1ccccc1Cl` (stereo not drawn) [Amlodipine Besylate]: 25.29%; `CCN(CC)Cc1cc(Nc2ccnc3cc(Cl)ccc23)ccc1O` [Amodiaquine dihydrochloride dihydrate]: 0%.
Same read-out and setting: then `CCN(CC)Cc1cc(Nc2ccnc3cc(Cl)ccc23)ccc1O` [Amodiaquine hydrochloride], with 7.946%; and `CC1(C)S[C@@H]2[C@H](NC(=O)[C@H](N)c3ccc(O)cc3)C(=O)N2[C@H]1C(=O)O` [Amoxicillin Sodium], with 14.1%.
In the case of `CC1(C)S[C@@H]2[C@H](NC(=O)[C@H](N)c3ccc(O)cc3)C(=O)N2[C@H]1C(=O)O` [Amoxicillin trihydrate], the “%inhibition” value is listed as 5.69%.
For `CC1(C)S[C@@H]2[C@H](NC(=O)[C@H](N)c3ccc(O)cc3)C(=O)N2[C@H]1C(=O)O` [Amoxicillin], the “%inhibition” value is listed as 9.546%.

Staying with this assay, now noted: read-out: %inhibition.
Take `COc1cc(C)c(/C=C/C(C)=C/C=C/C(C)=C/C(=O)O)c(C)c1C` [Acitretin]: the inhibition at 100 µM turned out to be 7.72%.
Regarding `O=C(O[C@H]1C[N+]2(CCCOc3ccccc3)CCC1CC2)C(O)(c1cccs1)c1cccs1` [Aclidinium Bromide], the inhibition at 100 µM came to 0%.
With `CC(=O)Nc1ccc(CC(=O)O)cc1` [Actarit], the inhibition at 100 µM was 2.1%.
For `COc1ccc(-c2ccc3cc(C(=O)O)ccc3c2)cc1[C@]12C[C@H]3C[C@H](C[C@H](C3)C1)C2` [Adapalene], the inhibition at 100 µM is 27.7%.
As for `CC(C)(C)C(=O)OCOP(=O)(COCCn1cnc2c(N)ncnc21)OCOC(=O)C(C)(C)C` [Adefovir Dipivoxil], the inhibition at 100 µM came to 37.1%.
For the compound `Nc1[nH]cnc2ncnc1-2` [Adenine HCl], the inhibition at 100 µM amounted to 9.72%.
Consider `Nc1ncnc2nc[nH]c12` [Adenine sulfate], for which the inhibition at 100 µM worked out at 4.13%.
Turning to `Nc1ncnc2c1ncn2[C@@H]1O[C@H](CO)[C@@H](O)[C@H]1O` [Adenosine], the inhibition at 100 µM is 0%.
Turning to `CCN(CC)CCOC(=O)C(c1ccccc1)c1ccccc1` [Adiphenine HCl], the inhibition at 100 µM turned out to be 6.54%.
Regarding `CNCC(=O)c1ccc(O)c(O)c1` [Adrenalone HCl], the inhibition at 100 µM is 6.88%.
Turning to `Cc1ccccc1-n1c(CF)nc2ccc(N)cc2c1=O` [Afloqualone], the inhibition at 100 µM was determined as 0%.
Take `Cn1ncc(Cl)c1-c1cc(C(=O)N[C@H](CN)Cc2cccc(F)c2)sc1Cl` [Afuresertib (GSK2110183)]: the inhibition at 100 µM was 0%.
Consider `COc1ccc2cccc(CCNC(C)=O)c2c1` [Agomelatine], for which the inhibition at 100 µM amounted to 36.5%.
As for `CC[C@H]1[C@@H]2C[C@H]3[C@@H]4N(C)c5ccccc5[C@]45C[C@@H]([C@H]2[C@H]5O)N3[C@@H]1O` [Ajmaline], the inhibition at 100 µM amounted to 18.1%.
Take `CCNC(=O)[C@@H]1CCCN1C(=O)[C@H](CCCN=C(N)N)NC(=O)[C@H](CC(C)C)NC(=O)[C@@H](C)NC(=O)[C@H](Cc1ccc(O)cc1)NC(=O)[C@H](CO)NC(=O)[C@H](Cc1c[nH]c2ccccc12)NC(=O)[C@H](Cc1cnc[nH]1)NC(=O)[C@@H]1CCC(=O)N1` [Alarelin Acetate]: the inhibition at 100 µM is 0.14%.
As to `CCC[S+]([O-])c1ccc2[nH]c(NC(=O)OC)nc2c1` (stereo not drawn) [Albendazole Oxide], the inhibition at 100 µM turned out to be 28%.
For the compound `CCCSc1ccc2[nH]c(NC(=O)OC)nc2c1` [Albendazole], the inhibition at 100 µM was found to be 0%.
For the compound `CN1CCC(=C2c3ccccc3CCn3c(C=O)cnc32)CC1` [Alcaftadine], the inhibition at 100 µM is 0%.
As to `CCc1cc2c(cc1N1CCC(N3CCOCC3)CC1)C(C)(C)c1[nH]c3cc(C#N)ccc3c1C2=O` [Alectinib hydrochloride], the inhibition at 100 µM came to 9.69%.
Still for that read-out and setting: then `NCCCC(O)(P(=O)(O)O)P(=O)(O)O` [Alendronate sodium trihydrate], with 1.69%.
With `C=C1/C(=C\C=C2/CCC[C@]3(C)[C@@H]([C@H](C)CCCC(C)C)CC[C@@H]23)C[C@@H](O)C[C@@H]1O` [Alfacalcidol], the inhibition at 100 µM came to 0%.
Turning to `COc1cc2nc(N(C)CCCNC(=O)C3CCCO3)nc(N)c2cc1OC` (stereo not drawn) [Alfuzosin HCl], the inhibition at 100 µM came out at 0%.
Regarding `C=CCc1cc(OC)c(O)c(C(=O)NCCO)c1` [Alibendol], the inhibition at 100 µM was found to be 15.2%.
With `CC(CN(C)C)CN1c2ccccc2Sc2ccccc21` (stereo not drawn) [Alimemazine Tartrate], the inhibition at 100 µM worked out at 12.1%.
`COc1cc(Nc2ncc3c(n2)-c2ccc(Cl)cc2C(c2c(F)cccc2OC)=NC3)ccc1C(=O)O` [Alisertib (MLN8237)]: the inhibition at 100 µM was 8.76%.
For `COCCCOc1cc(C[C@@H](C[C@H](N)[C@@H](O)C[C@H](C(=O)NCC(C)(C)C(N)=O)C(C)C)C(C)C)ccc1OC` [Aliskiren Hemifumarate], the inhibition at 100 µM amounted to 0%.
With `C=CCN1CCCC1CNC(=O)c1cc2nn[nH]c2cc1OC` (stereo not drawn) [Alizapride HCl], the inhibition at 100 µM turned out to be 0%.
For the compound `C=CCNC(N)=S` [Allylthiourea], the inhibition at 100 µM amounted to 7.98%.
Take `CN(C)CCc1c[nH]c2ccc(CS(=O)(=O)N3CCCC3)cc12` [Almotriptan Malate]: the inhibition at 100 µM came to 9.31%.
Consider `Cn1c(=O)cc(N2CCC[C@@H](N)C2)n(Cc2ccccc2C#N)c1=O` [Alogliptin], for which the inhibition at 100 µM was 12.8%.
Same read-out and setting: next, `Cc1[nH]cnc1CN1CCc2c(c3ccccc3n2C)C1=O` [Alosetron Hydrochloride]: 16.8%; `CCOC(=O)[C@H]1O[C@@H]1C(=O)N[C@@H](CC(C)C)C(=O)NCCC(C)C` [Aloxistatin]: 0%; `CCCCC[C@H](O)/C=C/[C@H]1[C@H](O)CC(=O)[C@@H]1CCCCCCC(=O)O` [Alprostadil]: 0%.
As for `C=CC[C@]1(O)CC[C@H]2[C@@H]3CCC4=CC(=O)CCC4=C3C=C[C@@]21C` [Altrenogest], the inhibition at 100 µM amounted to 0%.
Same read-out and setting: next, `CN(C)c1nc(N(C)C)nc(N(C)C)n1` [Altretamine]: 19.5%; `Cc1c(-c2ccnn2C)cc(C(=O)NCc2ccc(S(C)(=O)=O)cn2)c(=O)n1-c1cccc(C(F)(F)F)c1` [Alvelestat (AZD9668)]: 0%.
On to `CCN(CCCc1ccccc1)CCCc1ccccc1` [Alverine Citrate], for which the inhibition at 100 µM was found to be 8.25%.
Regarding `C[C@H]1CN(C[C@H](Cc2ccccc2)C(=O)NCC(=O)O)CC[C@@]1(C)c1cccc(O)c1` [Alvimopan dihydrate], the inhibition at 100 µM worked out at 12.8%.
Consider `NC12CC3CC(CC(C3)C1)C2` [Amantadine HCl], for which the inhibition at 100 µM came out at 0%.
In the case of `COC(c1ccccc1)(c1ccccc1)[C@H](Oc1nc(C)cc(C)n1)C(=O)O` [Ambrisentan], the inhibition at 100 µM stood at 0%.
`Cc1cccc(C)c1N(CC(=O)Nc1ccc(-c2ncon2)cc1)C(=O)C1CCS(=O)(=O)CC1` [Amenamevir]: the inhibition at 100 µM is 8.46%.
In the case of `Nc1c(CC(=O)O)cccc1C(=O)c1ccccc1` [Amfenac Sodium Monohydrate], the inhibition at 100 µM worked out at 4.46%.
On to `NCCCNCCSP(=O)(O)O` [Amifostine], for which the inhibition at 100 µM worked out at 0%.
The same measure, in the same setting: then `NCC[C@H](O)C(=O)N[C@@H]1C[C@H](N)[C@@H](O[C@H]2O[C@H](CN)[C@@H](O)[C@H](O)[C@H]2O)[C@H](O)[C@H]1O[C@H]1O[C@H](CO)[C@@H](O)[C@H](N)[C@H]1O` [Amikacin disulfate], with 0%; and `CCC1(c2ccc(N)cc2)CCC(=O)NC1=O` (stereo not drawn) [Aminoglutethimide], with 17.3%.
On to `N=C(N)NN` [Aminoguanidine hydrochloride], for which the inhibition at 100 µM was determined as 4.16%.
With `Cn1c(=O)c2[nH]cnc2n(C)c1=O` [Aminophylline], the inhibition at 100 µM turned out to be 5.61%.
As for `Nc1nccs1` [Aminothiazole], the inhibition at 100 µM is 1.18%.
Turning to `CCN1CCCC1CNC(=O)c1cc(S(=O)(=O)CC)c(N)cc1OC` (stereo not drawn) [Amisulpride], the inhibition at 100 µM stood at 7.08%.
Consider `CN(C)CCC=C1c2ccccc2CCc2ccccc21` [Amitriptyline HCl], for which the inhibition at 100 µM stood at 0%.
Regarding `CCOC(=O)C1=C(COCCN)NC(C)=C(C(=O)OC)C1c1ccccc1Cl` (stereo not drawn) [Amlodipine], the inhibition at 100 µM came to 25.5%.
In the case of `CC1(C)[C@@H](O[C@H]2O[C@H](C(=O)O)[C@@H](O)[C@H](O)[C@H]2O[C@@H]2O[C@H](C(=O)O)[C@@H](O)[C@H](O)[C@H]2O)CC[C@]2(C)[C@H]3C(=O)C=C4[C@@H]5C[C@@](C)(C(=O)O)CC[C@]5(C)CC[C@@]4(C)[C@]3(C)CC[C@@H]12` [Ammonium Glycyrrhizinate], the inhibition at 100 µM was determined as 0%.
`CC(O)C(=O)O` (stereo not drawn) [Ammonium lactate]: the inhibition at 100 µM turned out to be 16.4%.
Take `CN(C)CCN1C(=O)c2cccc3cc(N)cc(c23)C1=O` [Amonafide]: the inhibition at 100 µM amounted to 16.3%.
Same read-out and setting: then `CCC(C)(C)c1ccc(CC(C)CN2C[C@@H](C)O[C@@H](C)C2)cc1` (stereo partly drawn) [Amorolfine HCl], with 6.98%.
